Experimental data as given in ChEMBL document CHEMBL3046324, “Molecular recognition of long chain fatty acids by peroxisome proliferator-activated receptor” (Med Chem Res, 2009).

Columns and labels:
[1] = target: T1, Peroxisome proliferator-activated receptor alpha (Homo sapiens, UniProt Q07869); experiment: Inhibition of PPAR-alpha (unknown origin) by SPA assay
T1 sequence (Q07869 whole entry): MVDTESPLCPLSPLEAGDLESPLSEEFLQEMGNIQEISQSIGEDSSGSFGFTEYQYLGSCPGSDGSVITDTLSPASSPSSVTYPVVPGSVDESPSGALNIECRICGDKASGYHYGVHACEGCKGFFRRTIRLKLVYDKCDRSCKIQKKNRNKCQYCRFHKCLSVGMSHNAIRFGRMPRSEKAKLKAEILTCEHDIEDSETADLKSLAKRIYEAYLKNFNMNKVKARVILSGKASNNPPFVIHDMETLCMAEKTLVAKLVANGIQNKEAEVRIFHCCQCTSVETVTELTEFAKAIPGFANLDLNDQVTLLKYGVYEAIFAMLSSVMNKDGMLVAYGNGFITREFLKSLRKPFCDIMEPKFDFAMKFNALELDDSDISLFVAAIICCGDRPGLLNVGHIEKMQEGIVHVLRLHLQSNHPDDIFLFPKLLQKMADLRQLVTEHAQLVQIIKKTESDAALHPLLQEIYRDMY

[2] = target: T1, Peroxisome proliferator-activated receptor alpha; experiment: Binding affinity to PPAR-alpha (unknown origin) by fluorescence-based assay

Structure (SMILES)	IC50 [1]	Kd [2]
CCCCC/C=C\C/C=C\C/C=C\C/C=C\CCCC(=O)O [ARACHIDONIC ACID]	1.2 µM	–
CCCCCCCC/C=C\CCCCCCCCCCCC(=O)O [ERUCIC ACID]	> 30 µM	–
CC/C=C\C/C=C\C/C=C\C/C=C\C/C=C\CCCC(=O)O [ICOSAPENT]	1.1 µM	–
CCCCC/C=C\C/C=C\CCCCCCCC(=O)O [LINOLEIC ACID]	1.1 µM	0.0048 µM
CC/C=C\C/C=C\C/C=C\CCCCCCCC(=O)O [LINOLENIC ACID]	1.2 µM	0.0079 µM
CCCCCCCC/C=C\CCCCCCCC(=O)O [OLEIC ACID]	0.6 µM	–

Continued by falling IC50 [1], values first:

IC50 [1]	Kd [2]	Structure (SMILES)
1.7 µM	–	CCCCCC/C=C\CCCCCCCC(=O)O [PALMITOLEIC ACID]
1.4 µM	–	CCCCC/C=C\C/C=C\C/C=C\CCCCCCC(=O)O [DIHOMO-GAMMA-LINOLENIC ACID]
0.27 µM	–	CCCCC/C=C\C/C=C\C/C=C\CCCCC(=O)O [GAMOLENIC ACID]
